Assay results published in PubChem BioAssay AID179 (DTP/NCI, 2004).
Activity calls are given as the source filed them.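 The calls were made as follows: active = compounds giving half or more protection of infected cells from virus-caused growth loss, again on retest; inactive = the rest.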

Tested on: CEM cells HIV-1 protection, formazan growth assay
Test: NCI AIDS Antiviral Assay
Details: for IC50: measured here: growth of uninfected CEM cells
Outline: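 Human CEM cells, uninfected and HIV-1-infected, exposed to five drug concentrations; growth measured by soluble formazan assay and scored as percent protection from infection, with protecting compounds retested.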

SMILES: CC(=O)C[P+](c1ccccc1)(c1ccccc1)c1ccccc1
- EC50: > 200 µM
- IC50: 61.7 µM

SMILES: CN1CCc2c(sc(N)c2C#N)C1
- outcome: inactive

SMILES: CC1=CC(=O)/C(=C/N2C(=S)NC(=O)/C2=C/c2cccc([N+](=O)[O-])c2)C(=O)O1
- EC50: > 200 µM
- IC50: 138 µM

SMILES: O=c1nc2c(c(-c3ccc(F)cc3)[nH]1)COC/C2=C\c1ccc(F)cc1
- outcome: inactive

SMILES: CCOC(=O)C(NO)C(Sc1ccccc1)c1ccc(OC)cc1 (stereo not given)
- outcome: inactive

SMILES: CC(=O)C1C(=O)C(=O)N(c2cccc(C)c2C)C1=O (stereo not given)
- EC50: > 200 µM
- IC50: > 200 µM

SMILES: CCOC(=O)NC(S(=O)(=O)O)S(=O)(=O)O
- EC50: > 200 µM
- IC50: > 200 µM

SMILES: COc1ccc(-c2cc(-c3ccco3)c(C#N)c(=S)n2C2OC(COC(C)=O)C(OC(C)=O)C(OC(C)=O)C2OC(C)=O)cc1 (stereo not given)
- EC50: 123 µM
- IC50: 145 µM

SMILES: O=C1O[C@H]2CCC3=CC[C@@H](c4ccccc4)C=C1[C@H]32
- outcome: inactive

SMILES: CSC(SC)=C1CC(=O)Nc2ccccc2C1=O
- EC50: > 200 µM
- IC50: 58.9 µM

SMILES: N#CC1C(=O)N(c2ccccc2)NC12OC(=O)c1ccncc12 (stereo not given)
- EC50: > 200 µM
- IC50: > 200 µM

SMILES: O=C(CC1Sc2ccccc2NC1=O)Nc1cc(Cl)ccc1Cl (stereo not given)
- EC50: > 70.8 µM
- IC50: > 70.8 µM

SMILES: COC(=O)Cc1c2c3n(c(=O)c1-n1[nH]c(=O)n(-c4ccc(Cl)cc4)c1=O)CCN3CCC2
- EC50: > 200 µM
- IC50: > 200 µM

SMILES: O=c1[nH]c(=O)c2[nH]c(Cl)nc2[nH]1
- EC50: > 28.2 µM
- IC50: > 28.2 µM

SMILES: O=c1c2c3c(sc2nc2n1NC=NN2)CCCC3
- EC50: > 20 µM
- IC50: 8.51 µM

SMILES: CCCCCCC(O)CC[C@H]1CCC[C@@H](C)N1 (stereo not given in full)
- outcome: inactive

SMILES: NC(=O)C(N)C(F)c1ccccc1 (stereo not given)
- EC50: > 200 µM
- IC50: > 200 µM

SMILES: O=C(CSc1c2ccccc2nc2ccccc12)Nc1ccccc1-c1ccccc1NC(=O)CSc1c2ccccc2nc2ccccc12
- EC50: > 1.91 µM
- IC50: > 1.91 µM

SMILES: COc1ccc(N=Nc2c(C)c(C#N)c(=S)n(C3OC(COC(C)=O)C(OC(C)=O)C(OC(C)=O)C3OC(C)=O)c2C)cc1 (stereo not given)
- EC50: > 200 µM
- IC50: > 200 µM

SMILES: CC1C(c2ccc3c(c2)OCO3)CC(Cl)CC12C=C1OCOC1=CC2=O (stereo not given)
- EC50: > 69.2 µM
- IC50: 47.9 µM

SMILES: COc1cc2cc[n+](C)c(Cc3ccc(Oc4cc(Cc5c6cc(OC)c(OC)cc6cc[n+]5C)ccc4OC)cc3)c2cc1OC
- outcome: inactive

SMILES: O=[N+]([O-])c1ccc(-c2cnc3ccccn23)cc1
- EC50: > 105 µM
- IC50: > 105 µM

SMILES: CCOC(=O)C(C)(C)Oc1ccc(Cl)cc1
- EC50: > 200 µM
- IC50: > 200 µM

SMILES: Nc1ccn(C2CC3OCC3O2)c(=O)n1 (stereo not given)
- EC50: > 200 µM
- IC50: > 200 µM

SMILES: Cc1ccc(S(=O)(=O)N2CCCSCCSCCCN(S(=O)(=O)c3ccc(C)cc3)CC2)cc1
- EC50: > 13.2 µM
- IC50: > 13.2 µM

SMILES: O=[N+]([O-])c1ccc(OCn2ncc3ccc([N+](=O)[O-])cc32)cc1
- EC50: > 200 µM
- IC50: > 200 µM

SMILES: CC(=O)OCC1OC(n2c(=S)n(-c3ccccc3)c(=O)c3cc(Br)cc(Br)c32)C(OC(C)=O)C(OC(C)=O)C1OC(C)=O (stereo not given)
- EC50: > 18.2 µM
- IC50: > 18.2 µM

SMILES: CC1(C)OC(=O)C(=Cc2cccc(F)c2)C(=O)O1
- EC50: > 525 µM
- IC50: > 525 µM

SMILES: CCCCC1C(=O)N2c3ccccc3-c3ccccc3N2C1=O
- outcome: inactive

SMILES: O=C(O)c1cc2ccccc2[nH]c1=O
- outcome: inactive

SMILES: O=C(NCc1ccccc1Cl)c1c(O)c2ccccc2[nH]c1=O
- EC50: > 200 µM
- IC50: > 200 µM

SMILES: Cc1ccc(SS(=O)(=O)c2ccc([N+](=O)[O-])cc2)cc1
- EC50: > 60.3 µM
- IC50: 40.7 µM

SMILES: CN(C)CCc1c2c(nc3ccccc13)C(=O)c1cccnc1C2=O
- outcome: inactive

SMILES: Cc1ccc([P+](CCN2C(=O)c3ccccc3C2=O)(c2ccc(C)cc2)c2ccc(C)cc2)cc1
- EC50: > 200 µM
- IC50: 10 µM

SMILES: O=C(/C=C/c1ccco1)N1CCN(Cc2ccccc2)CC1
- EC50: > 282 µM
- IC50: 263 µM

SMILES: CCC(C)SSc1ccccc1C(=O)Nc1ccc(Cl)cc1 (stereo not given)
- EC50: > 200 µM
- IC50: 0.776 µM

SMILES: Cc1cc2c(C)n(Cc3ccc(Cl)cc3Cl)nc2c(C(=O)O)c1C
- EC50: > 501 µM
- IC50: 83.2 µM

SMILES: C=CCc1ccc(O)c(-c2cc(C3Oc4c(-c5cc(CC=C)ccc5O)cc(O)cc4[C@@H]3CO)ccc2O)c1 (stereo not given in full)
- EC50: > 100 µM
- IC50: 91.2 µM

SMILES: O=C1[C@H]2ON(c3ccccc3)C(c3cccc([N+](=O)[O-])c3)[C@H]2C(=O)N1c1ccc(Cc2ccc(N3C(=O)[C@@H]4ON(c5ccccc5)C(c5cccc([N+](=O)[O-])c5)[C@@H]4C3=O)cc2)cc1 (stereo not given in full)
- EC50: > 6.17 µM
- IC50: > 6.17 µM

SMILES: CCOC(OCC)(OCC)C(Br)CC (stereo not given)
- EC50: > 933 µM
- IC50: > 933 µM

SMILES: COC(=O)c1ccccc1/C=C1\Cc2cc(C)cc(C)c2C1=O
- outcome: inactive

SMILES: NC(=O)N1c2ccccc2C=Cc2ccccc21
- EC50: > 200 µM
- IC50: > 200 µM

SMILES: Cc1ccc(S(=O)(=O)N/N=C2/C3C(CC2(C)C)C2(C)CCCC3(C)C2O)cc1 (stereo not given)
- EC50: > 200 µM
- IC50: > 200 µM

SMILES: O=C(/C=C/c1ccccc1O)c1ccc([N+](=O)[O-])cc1
- EC50: > 95.5 µM
- IC50: 53.7 µM

SMILES: COC1CCC2=CCC3C(=O)N(c4ccccc4)C(=O)C3C21 (stereo not given)
- EC50: > 603 µM
- IC50: > 603 µM

SMILES: O=S(=O)(O)Oc1cc2c(c(OS(=O)(=O)O)c1)C[C@H](OS(=O)(=O)O)[C@@H](c1ccc(OS(=O)(=O)O)c(OS(=O)(=O)O)c1)O2
- EC50: 91.2 µM
- IC50: 174 µM

SMILES: O=C1CCC(=O)C(C(=O)CCC(=O)Nc2cccc(Cl)c2)C1 (stereo not given)
- EC50: > 562 µM
- IC50: > 562 µM

SMILES: Oc1ccccc1-c1cnnc(-c2ccccc2O)c1
- EC50: > 97.7 µM
- IC50: 18.2 µM

SMILES: NNc1ccc2cc(S(=O)(=O)O)cc(S(=O)(=O)O)c2c1
- EC50: > 741 µM
- IC50: 331 µM

SMILES: CO/C(=N\N=C\c1ccc(Cl)cc1Cl)c1ccncc1
- EC50: > 21.9 µM
- IC50: > 21.9 µM

SMILES: O=C(Cc1ccccc1)OCCOCCOCCOCCOCCOCCOCCOCCOCCOC(=O)Cc1ccccc1
- outcome: inactive

SMILES: CCOC1OC(c2ccccc2)=NS(=O)(=O)C1(C)C (stereo not given)
- EC50: > 891 µM
- IC50: 513 µM

SMILES: CC(=O)Nc1ccc(-c2nnc(SCC(=O)Nc3ccc([N+](=O)[O-])cc3)o2)cc1
- EC50: > 45.7 µM
- IC50: 7.94 µM

SMILES: O=c1[nH]c(=O)n(C2CC(O)C(CO)O2)c2nc3ccc4cc5ccccc5cc4c3nc12 (stereo not given)
- EC50: > 50.1 µM
- IC50: 39.8 µM

SMILES: Cn1c(=O)nc2n(-c3ccc(Cl)cc3Cl)c3ccccc3nc-2c1=O
- outcome: inactive

SMILES: CC(=O)n1cc(CC(C)O)c(=O)[nH]c1=O (stereo not given)
- EC50: > 1170 µM
- IC50: > 1170 µM

SMILES: COC(=O)c1ccc2cc1Nc1c(C#N)cnc(=S)n1-2
- EC50: > 603 µM
- IC50: 363 µM

SMILES: C=C1C(=O)C23C(O)C1CC[C@H]2C12CCCC(C)(COC(C)=O)[C@H]1[C@H](O)[C@]3(O)OC2 (stereo not given in full)
- EC50: > 324 µM
- IC50: 0.398 µM

SMILES: C(=C(c1ccccc1)c1ccccc1)N1CCOCC1
- EC50: > 200 µM
- IC50: > 200 µM

SMILES: CC1(C)CC(=O)/C(=C/C2CCNC2=S)C(=O)N1 (stereo not given)
- EC50: > 501 µM
- IC50: > 501 µM

SMILES: CC1(C)CCC(C)(C)C1C(=O)NC(O)C(=O)O (stereo not given)
- EC50: > 200 µM
- IC50: > 200 µM

SMILES: O=c1ccc(=O)c2c1c1[nH]c3ccccc3c1c1c(=O)c3ccccc3c(=O)c21
- EC50: > 200 µM
- IC50: 18.6 µM

SMILES: O=C(CCCN1CC=C(n2c(=O)[nH]c3ccccc32)CC1)c1cccs1
- EC50: > 200 µM
- IC50: 120 µM

SMILES: Cc1ccc(S(=O)(=O)OCC/C(=C\[Si](C)(C)C)c2ccccc2)cc1
- outcome: inactive
